# Source: the METLIN SMRT retention time set (Domingo-Almenara et al. 2019)
# Assay: gradient 5% acetonitrile 3 min, to 50% in 2 min, to 85% in 15 min, held 3 min, 100 µL/min
# Conditions: column: Zorbax Extend-C18 2.1 x 50 mm; eluents: water / acetonitrile, 0.1% formic acid
# Procedure, shortened: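 Data were gathered over 3 months by HPLC coupled to a quadrupole time-of-flight mass spectrometer, operated in positive and negative ionization mode. Mixtures of ~100 pure standards ran on a Zorbax Extend-C18 column (2.1 × 50 mm, 1.8 μm) at 100 μL/min, with water and acetonitrile each containing 0.1% formic acid and dead and dwell volumes of 40 μL and 900 μL. Retention time was read from adduct peaks picked by computer and checked manually.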
row,Structure (SMILES),RP-LC retention time
1,O=C(NC1CCCCC1)C1CC(=O)N(CCc2c[nH]c3ccc(Cl)cc23)C1 (stereo unspecified),817 s
2,Cc1ccc(S(=O)Cc2ccc(C(=O)N3CCN(c4ccccn4)CC3)o2)cc1 (stereo unspecified),587 s
3,Cc1ccc(NC(=O)C2CCCN2S(=O)(=O)c2cc3c(cc2C)NC(=O)C(C)O3)c(Cl)c1 (stereo unspecified),914 s
4,O=C(c1nc(-c2cccc(F)c2)n2c1CCCCC2)N1CCN(c2ccccn2)CC1,645 s
5,COC(=O)c1ncn2c1C(=O)N(Cc1ccc(C)cc1)C(C)(C(=O)NCc1ccccc1)C2 (stereo unspecified),747 s
6,CCc1ccc2nc(NC3=NCN(CCCOC)CN3)nc(C)c2c1,694 s
7,COc1ccccc1NC(=O)C1Cc2ccccc2CN1S(=O)(=O)c1ccccc1 (stereo unspecified),1070 s
8,CN(C)S(=O)(=O)c1ccc(-c2nnc(C(=O)NCc3cccnc3)o2)cc1,595 s
9,CCCn1nnc2cc(-c3noc(C4CC(=O)N(c5ccccc5)C4)n3)ccc21 (stereo unspecified),930 s
10,COc1cccc(-c2nc(COc3cc(C)c4c(C)nn(C)c4n3)c(C)o2)c1OC,1070 s
11,Cc1ccc(NC(=O)Cn2nc(N3CCCCCC3)c3ccccc3c2=O)cc1C,1200 s
12,CCn1c(SCC(=O)Nc2nc(-c3ccc(C)cc3)cs2)nnc1-c1cc2ccccc2o1,1140 s
13,COCCN1C(=O)c2ccccc2C(C(=O)NC2CCCC2)C1c1cccs1 (stereo unspecified),843 s
14,O=C(Nc1ccccc1Br)N1CCCC1c1nc(-c2ccc(F)cc2F)no1 (stereo unspecified),1070 s
15,COc1cccc(S(=O)(=O)N2CCCN(C3CCN(Cc4ccccc4)C3=O)CC2)c1 (stereo unspecified),671 s
16,COc1ccc(N2CC(c3nc(-c4ccc(Cl)cc4)no3)CC2=O)cc1 (stereo unspecified),998 s
17,CCc1nnc(-c2ccc3ccn(CC(=O)Nc4cccc(C(C)=O)c4)c3c2)o1,788 s
18,Cc1cc2c(cc1C)N(C(=O)CCl)CC(=O)N2,745 s
19,CC(C)NC(=O)N1CC(c2nc(-c3ccc(F)cc3)no2)C2(CCOCC2)C1 (stereo unspecified),815 s
20,Cc1[nH]c(C)c(S(=O)(=O)N2CCC(C(=O)NC3CC3)CC2)c1C(=O)N1CCCCC1,630 s
21,O=C(Cc1ccccc1F)N1CCCC1c1nc(-c2cccc(C(F)(F)F)c2)no1 (stereo unspecified),1110 s
22,CN(C)C[C@@H]1CN(Cc2ccccc2)C[C@H]1NS(=O)(=O)c1cccc(F)c1,586 s

row,Structure (SMILES),RP-LC retention time
1,Cc1cc(N2CCC(NC(=O)Nc3ccc(Cl)cc3)C2=O)ccc1F (stereo unspecified),920 s
2,Cc1nc(CCNC(=O)Cc2ccsc2)no1,640 s
3,Cc1noc(CNC(=O)C2CCN(C(=O)NCc3ccc(F)cc3)CC2)n1,615 s
4,CC(=O)N1CCc2cc(-c3ccc(C(=O)N4CCN(c5ccccn5)CC4)cc3)ccc21,611 s
5,CCN(CC)CCNc1ncnc2onc(-c3cccc(Cl)c3)c12,660 s
6,CC(C)(C)NC(=O)N1CCC(CNC(=O)c2ccc3nsnc3c2)CC1,679 s
7,Cn1c(=O)n(C)c2cc(NS(=O)(=O)c3ccc(F)cc3)c(Cl)cc21,726 s
8,COC(=O)c1cc2ccsc2n1Cc1cccc(C#N)c1,1010 s
9,Cc1[nH]c(C(=O)N2CCCC(C(=O)NCc3ccc(OC(C)C)cc3)C2)c(C)c1C(=O)OC(C)C (stereo unspecified),929 s
10,CC(C)NC(=O)N1CC[C@H](n2c(=O)n(C)c3cccnc32)C1,632 s
11,O=C(Nc1ccc2c(c1)OCCO2)C1CCN(c2cc(N3CCCC3)ncn2)CC1,630 s
12,COCCCNC(=O)CC1Sc2ncccc2N(C)C1=O (stereo unspecified),600 s
13,COC(=O)N1CCc2ccc(F)cc2C1C(=O)Nc1cccc2nsnc12 (stereo unspecified),754 s
14,O=C1CCc2cc(S(=O)(=O)NCCCc3ccccc3)cc3c2N1CCC3,879 s
15,Cc1ccc(-c2nc(-c3ccc(NS(=O)(=O)c4cccs4)cc3)no2)cc1F,1180 s
16,CC1(C)C(=O)N(CC(=O)Nc2cccc(Cl)c2)c2ccccc21,978 s
17,Cc1ccc(C)c(NC(=O)N2CCN(c3cc(-c4ccncc4)[nH]n3)CC2)c1,615 s
18,CCOc1cccc(-c2noc(Cn3c(=O)n(Cc4ccc(OC)cc4)c(=O)c4sccc43)n2)c1,1060 s
19,CC1CCN(c2cc(-c3noc(C(=O)N4CCCC4)n3)ccn2)CC1,764 s
20,CCc1nc(-n2cccc2)sc1C(=O)Nc1ccc(OC)c(OC)c1,965 s
21,CC1CCC(NC(=O)c2cn(-c3ccc(NC(=O)C4CC4)cn3)cn2)CC1 (stereo unspecified),790 s
22,C/C=C1/[C@H]2C=C(C)C[C@]1(N)c1ccc(=O)[nH]c1C2,589 s

row,Structure (SMILES),RP-LC retention time
1,CN1CCN(C(=O)c2ccc(-c3ccc(Br)cc3)o2)CC1,588 s
2,Cc1ccc(C2c3[nH]c4ccccc4c3CCN2C(=O)Cc2cccs2)cc1 (stereo unspecified),988 s
3,CC(C)(C)n1nnnc1C1CC2(CCOCC2)C(=O)N1Cc1ccccc1F (stereo unspecified),756 s
4,O=C(Cc1ccc(F)cc1)NC1CCN(c2cc(-c3ccc(F)cc3)[nH]n2)C1 (stereo unspecified),720 s
5,O=C(NCCS(=O)(=O)N1CCN(c2ccc(F)cc2)CC1)c1cccc([N+](=O)[O-])c1,834 s
6,COC(=O)c1ccc2c(=O)n(Cc3ccc(OC)cc3)c(N3CCC(C)CC3)nc2c1,1330 s
7,COc1ccc(OC)c(NC(=O)NC2CCN(c3nc4ccccc4n(C)c3=O)CC2)c1,886 s
8,O=C(c1ccccc1Sc1nccnc1Oc1ccccc1)N1CCOCC1,859 s
9,CN(C)c1ccc(-c2nc(C3CC(=O)N(c4ccc(F)cc4)C3)no2)cc1 (stereo unspecified),975 s
10,O=C(NCCC1=CCCCC1)c1ccc2ccnc(N3CCN(c4ccccc4)CC3)c2c1,958 s
11,O=C(Nc1cccc(F)c1)c1cc(C2CC2)on1,956 s
12,CCOc1ccccc1OCc1nn2c(-c3ccoc3C)nnc2s1,970 s
13,Cc1nnc(-c2ccc3ccn(CC(=O)Nc4ccccn4)c3c2)o1,670 s
14,O=C(c1cnccn1)N1CCCn2nc(-c3cccc(Cl)c3)cc2C1,767 s
15,CCN(Cc1ccccc1)S(=O)(=O)c1c(C)nn(-c2ccc(-c3ccccc3)nn2)c1C,1220 s
16,Cn1c(C2CCN(C(=O)c3ccc(Cl)cc3)C2)nc2ccncc21 (stereo unspecified),540 s
17,Fc1ccc(-n2cc(-c3noc(-c4ccccc4)n3)nn2)cc1,1040 s
18,N#Cc1cccc(S(=O)(=O)N2CCc3nc(-c4ccc(Cl)cc4)ncc3C2)c1,1130 s
19,CC(C)NC(=O)c1ccc(Nc2c(-c3ccc(Cl)cc3)nc3cnccn23)cc1,764 s
20,Cc1[nH]c(-c2ccc(Cl)cc2)cc1C(=O)NC1CCCCC1,990 s
21,CC1(C)CC(=O)c2cn(-c3ccc(F)cc3)c(=O)c(C(=O)N3CCc4ccccc43)c2C1,954 s
22,Cc1cc(Cl)ccc1S(=O)(=O)N1CCC2(CCC(CN3CCN(C)CC3)O2)CC1 (stereo unspecified),642 s
